Source: patent EP0423707A2, “Platinum complexes” (Bristol-Myers Squibb Company, priority 1989, dated 1991)

Experiments:
[1] = tested on: B16-F10 murine melanoma cells; assay: In vitro cytotoxicity, crystal violet staining after 72 hours incubation; assay type: cell-based
Method: (§1) The cytotoxic activity of the platinum complexes were evaluated in vitro using B16-F10 murine melanoma cells and HCT-116 human colon carcinoma cells. The B16-F10 cell line was maintained cultured in Eagle's Minimum Essential Medium (MEM) with Earle's salts (Gibco; Grand Island, NY) enriched with 2 millimoles of L-glutamine, 2.06 millimoles of sodium pyruvate, insulin (0.26 units/ml), penicillin/streptomycin (10 units/milliliter and 10 micrograms/milliliter, respectively), MEM non-essential amino acids (0.6% Gibco; Grand Island, NY), and 10% fetal bovine serum (Hyclone; Logan, UT). The HCT-116 cells were grown in McCoy's 5A medium (modified, Gibco; Grand Island, NY) supplemented with 2 millimoles of L-glutamine, 0.12 millimoles of L-serine, 0.17 millimoles of asparagine, 1.5 millimoles of sodium pyruvate, MEM essential amino acids (0.67%, Gibco; Grand Island, NY), MEM vitamins (0.6%, Gibco; Grand Island, NY), fetal calf serum (10%, Hyclone; Logan, UT), and penicillin/streptomycin (10 units/milliliter and 10 micrograms/milliter, respectively). Both cell lines were incubated at 37°C in 5% CO₂/balance air high-humidity incubator.
(§2) Logarithmically growing cells were then harvested by mild trypsinization, and 4000 cells were added to each well of a 96-well microtiter plate (Costar; Cambridge, MA). The plates were incubated at 37°C in 5% CO₂ overnight to permit cell attachment to the plate. The cells were then treated with a platinum complex according to the present invention, cisplatin, or iproplatin and then incubated for 72 hours. After incubating, the plates were inverted and shaken to remove media, drug, and detached cells. Formalin (10%) in phosphate buffered saline was added and the cells fixed for 10 minutes. The fixative was then removed, the plates air dried, stained with 0.0075% crystal violet for 15 minutes, washed twice, and air dried. The stain is solubilized with 0.2 milliliters of 0.2 Molar AcOH/EtOH (1:1) and optical densities determined using a Dynatech MR600 microtiter plate reader (Dynatech; Chantilly, VA). IC50 values are calculated by linear regression analysis of absorption data.
(§3) For the above described in vitro cytotoxicity studies, the compounds are dissolved or suspended, depending on their solubility, in 0.9% Sodium Chloride or 10% ethanol in 0.9% Sodium Chloride. The compounds are prepared for in vivo treatment by dissolving or suspending in water (minimal amounts of Tween 80), 0.9% Sodium Chloride, or 10% ethanol in 0.9% Sodium Chloride. Olive oil or cotton seed oil are used for in vivo studies when the compounds are oil soluble compounds (see, for example, in Table 8, an oil soluble compound in olive oil, Example 9 (2-ethylhexanoate derivative), below).

[2] = tested on: HCT-116 human colon carcinoma cells; assay: as above; assay type: cell-based; conditions: HCT-116 cells
Method: as §1, §2, §3

L1210 murine leukemia [3] = assay: Activity against L1210 murine leukemia, intraperitoneal implanted tumor; assay type: in vivo, CDF1 mice; conditions: single intraperitoneal dose on Day 1, at the dose producing the maximum effect, median survival time vs saline controls
Method: (§4) The platinum complexes according to the present invention were tested for antitumor activity against L1210 murine leukemia. CDF1 mice weighing 20 grams were inoculated intraperitoneally or intracerebrally with 10⁶ or 10⁵ ascites cells of L1210 leukemia, respectively.
(§5) Drug administration was initiated the day following intra-peritoneal tumor implantation or 3 days following intracerebral implant. The complexes were administered at various dose levels by intraperitoneal injection. Groups of 4 to 6 mice were used for each dose level, and they were treated with a single dose of the complex on the treatment day. A group of 10 saline treated control mice were included in each experiment. Cisplatin and iproplatin treated groups were included as positive controls in each experiment.
(§6) The mice were weighed before treatment and again on day 5 or 6, and the average weight change was used as a measure of toxicity. The animals were observed daily for mortality, and the experiments terminated after 30 days. Antitumor activity was determined based on percent T/C, which is the ratio of the median survival time of the drug treated group to the median survival time of the saline treated control group times 100.
(§7) A complex was considered active if it produced a T/C greater than or equal to 125 percent. […]

L1210 murine leukemia [4] = assay: Activity against L1210 murine leukemia, intracerebral implanted tumor; assay type: in vivo, CDF1 mice; conditions: single intraperitoneal dose on Day 3, at the dose producing the maximum effect, median survival time vs saline controls
Method: as §4, §5, §6, §7

M5076 sarcoma = assay: Activity against M5076 sarcoma, subcutaneous implant; assay type: in vivo, BDF1 mice; conditions: Days 5, 9, 13, and 17, at the dose producing the maximum effect; for MAXIMUM % T/C: median survival time vs controls; for MAXIMUM T-C: median time for tumors to reach 1 gram relative to controls
Method: Platinum complexes according to the present invention were additionally evaluated for further antitumor activity against M5076 sarcoma. BDF1 mice, 8 per group, were inoculated subcutaneously with a fragment of M5076 sarcoma.
Intraperitoneal or intravenous treatment with the complexes was initiated 5 days after implant and was continued on days 9, 13, and 17 for a total of 4 treatments. From 4 to 6 doses were tested for each compound under study.
A saline treated control group and cisplatin treated groups were included in each experiment. The mice were observed daily for survivors, and the experiments terminated after 75-80 days.
Antitumor activity was determined based on a) median survival time of the drug treated mice relative to that of the controls (percent T/C) and b) the median time for tumors to reach 1 gram in drug treated mice relative to the controls (T-C). A complex was considered active if it produced a T-C greater than or equal to 13 days.
as §3

P388 murine leukemia = assay: Activity against P388 murine leukemia, intravenous inoculation, oral treatment; assay type: in vivo, CDF1 mice; conditions: administered orally (by gavage) 1 time on Day 1; at the dose producing the maximum effect; median survival time vs saline controls
Method: The platinum complexes according to the present invention were tested for antitumor activity against P388 murine leukemia. CDF1 mice weighing 20 grams were inoculated intravenously with 10⁶ ascites cells of P388 leukemia.
Drug administration of the platinum complexes was initiated on the day following the intravenous tumor inoculation. The complexes were administered at various dosage levels by oral gavage. Groups of 6 mice were used for each dose level, and they were treated with a single dose of the complex on the treatment day. A group of 10 saline treated control mice were included in each experiment. Cisplatin treated groups were included as positive controls in each experiment.
as §6
A complex was considered active if it produced a T/C greater than or equal to 125 percent.
For the above described in vitro cytotoxicity studies, the compounds are dissolved or suspended, depending on their solubility, in 0.9% Sodium Chloride or 10% ethanol in 0.9% Sodium Chloride. […]

Molecule	IC50 B16 [1]	IC50 HCT116 [2]	MAXIMUM % T/C (L1210 murine leukemia [3])	MAXIMUM % T/C (L1210 murine leukemia [4]) [%]	MAXIMUM % T/C (M5076 sarcoma; route ip)	MAXIMUM T-C (M5076 sarcoma; route ip) [days]	MAXIMUM % T/C (M5076 sarcoma; route iv)	MAXIMUM T-C (M5076 sarcoma; route iv) [days]	MAXIMUM % T/C (P388 murine leukemia) [%]
N.N.[Cl][Pt][Cl] [Cisplatin]	5.4-7.3 micrograms/milliter	4.2-4.5 micrograms/milliter	143-207%	114	126%	33	114-126%	25 to 27.3	173
Iproplatin	66.8-243 micrograms/milliter	20.2-31.2 micrograms/milliter	143-171%	157	160+^b %	34.5			
